Broadly, the viability is a read-out of living cells in per cent, often relative to untreated cells.

“Also recorded” adds a separate entry of the source.

We go through one compound from patent publication US20230218573A1, “INDOLE COMPOUNDS FOR THE TREATMENT OF NEURODEGENERATIVE DISEASES” (GALYAN BIO, INC., priority 2020, published 2023).

Data set [1] relates to STHdh 111/111 striatal cells. The data set can be described thus: Cell viability (CellTiter Glo) of heat shocked STHdh 111/111 striatal cells. It counts as cell-based, mouse. Background: Cellular ATP, detected with luciferase, serves as a proxy for viable cell number.
Another data set relates to LC3 (autophagic flux). The data set can be described thus: Autophagic flux and LC3 stained area in STHdh 111/111 cells. It counts as cell-based, mouse. Here is the method: Staining - Cells were permeabilized with 0.3% Triton X-100 in 4° C. PBS (pH 7.4 from ThermoFisher) for 10 minutes. Then the cells were washed two times with 4° C. PBS. Subsequently, cells are blocked with 3% NGS (normal goat serum from Thermo Fisher) in 4° C. PBS for 1 hour. Cells were incubated with primary antibodies in blocking buffer (PBS, 3% NGS, 0.02% NaN3) over night at 4° C. Primary antibodies were mouse antipolyglutamine monoclonal antibody 3B5H10 (Sigma-Aldrich) at 1:250 dilution and Guinea Pig anti-MAP2 polyclonal antibody (Synaptic Systems) at 1:500 dilution. […]
Fluorescence Imaging - Imaging sessions were performed on a confocal microscope system (Carl Zeiss Microscopy) equipped with a dual spinning disk unit (Yokogawa). […] The fluorescence images obtained of the immunofluorescence labelled tissue sections were quantified with the help of the “Image Processing and Analysis in Java” or short ImageJ software distributed under the GNU General Public License by the NIH (Rueden, C.T. et al., BMC Bioinformatics. 2017 Nov 29;18(1):529), i.e. the edition used was the Fiji distribution (Schindelin, J. et al., Nature methods. 2012 Jun 28;9(7):676-82). […]
Autophagic flux was calculated as the area stained with LC3 antibody per cell in STHdh 111/111 with autophagy inhibitor NH4Cl minus area stained with LC3 antibody per cell in STHdh 111/111 without the autophagy inhibitor NH4Cl.

A short description of data set [2]: Pharmacokinetics, plasma and brain concentration by UHPLC-TOF. It counts as in vivo, mice. Here is the method:
Compound 22 is an analog of Compound 7. […] Compound 22 pharmacokinetic properties was measured in three male CD1 mice at several timepoints. Compound 22 was dissolved in 10% DMSO, 10%, cremaphor, and 80% saline. The tested dose was 33.3 mg/kg body weight. Brain tissue was homogenized and protein precipitated with acetonitrile. […] As such, Compound 22 was selected for testing in an animal model of HD the R6/2 model. As described below, Compound 22 and its analogs were further tested for their effects on striatal cell viability and effects of mHTT levels.

The target in another data set is mHTT (Mus musculus, UniProt P42859, DEL28-30/G47A/INS49LLPQPQPP/INS60VA/L56P/P40L). Briefly: Diffuse mHTT levels in heat shocked STHdh 111/111 striatal cells by immunocytochemistry. The conditions noted are these: STHdh 111/111; in comparison to untreated cells.
mHTT, sequence (P42859 with tags, fused parts or gaps DEL28-30/P40L/G47A/INS49LLPQPQPP/L56P/INS60VA): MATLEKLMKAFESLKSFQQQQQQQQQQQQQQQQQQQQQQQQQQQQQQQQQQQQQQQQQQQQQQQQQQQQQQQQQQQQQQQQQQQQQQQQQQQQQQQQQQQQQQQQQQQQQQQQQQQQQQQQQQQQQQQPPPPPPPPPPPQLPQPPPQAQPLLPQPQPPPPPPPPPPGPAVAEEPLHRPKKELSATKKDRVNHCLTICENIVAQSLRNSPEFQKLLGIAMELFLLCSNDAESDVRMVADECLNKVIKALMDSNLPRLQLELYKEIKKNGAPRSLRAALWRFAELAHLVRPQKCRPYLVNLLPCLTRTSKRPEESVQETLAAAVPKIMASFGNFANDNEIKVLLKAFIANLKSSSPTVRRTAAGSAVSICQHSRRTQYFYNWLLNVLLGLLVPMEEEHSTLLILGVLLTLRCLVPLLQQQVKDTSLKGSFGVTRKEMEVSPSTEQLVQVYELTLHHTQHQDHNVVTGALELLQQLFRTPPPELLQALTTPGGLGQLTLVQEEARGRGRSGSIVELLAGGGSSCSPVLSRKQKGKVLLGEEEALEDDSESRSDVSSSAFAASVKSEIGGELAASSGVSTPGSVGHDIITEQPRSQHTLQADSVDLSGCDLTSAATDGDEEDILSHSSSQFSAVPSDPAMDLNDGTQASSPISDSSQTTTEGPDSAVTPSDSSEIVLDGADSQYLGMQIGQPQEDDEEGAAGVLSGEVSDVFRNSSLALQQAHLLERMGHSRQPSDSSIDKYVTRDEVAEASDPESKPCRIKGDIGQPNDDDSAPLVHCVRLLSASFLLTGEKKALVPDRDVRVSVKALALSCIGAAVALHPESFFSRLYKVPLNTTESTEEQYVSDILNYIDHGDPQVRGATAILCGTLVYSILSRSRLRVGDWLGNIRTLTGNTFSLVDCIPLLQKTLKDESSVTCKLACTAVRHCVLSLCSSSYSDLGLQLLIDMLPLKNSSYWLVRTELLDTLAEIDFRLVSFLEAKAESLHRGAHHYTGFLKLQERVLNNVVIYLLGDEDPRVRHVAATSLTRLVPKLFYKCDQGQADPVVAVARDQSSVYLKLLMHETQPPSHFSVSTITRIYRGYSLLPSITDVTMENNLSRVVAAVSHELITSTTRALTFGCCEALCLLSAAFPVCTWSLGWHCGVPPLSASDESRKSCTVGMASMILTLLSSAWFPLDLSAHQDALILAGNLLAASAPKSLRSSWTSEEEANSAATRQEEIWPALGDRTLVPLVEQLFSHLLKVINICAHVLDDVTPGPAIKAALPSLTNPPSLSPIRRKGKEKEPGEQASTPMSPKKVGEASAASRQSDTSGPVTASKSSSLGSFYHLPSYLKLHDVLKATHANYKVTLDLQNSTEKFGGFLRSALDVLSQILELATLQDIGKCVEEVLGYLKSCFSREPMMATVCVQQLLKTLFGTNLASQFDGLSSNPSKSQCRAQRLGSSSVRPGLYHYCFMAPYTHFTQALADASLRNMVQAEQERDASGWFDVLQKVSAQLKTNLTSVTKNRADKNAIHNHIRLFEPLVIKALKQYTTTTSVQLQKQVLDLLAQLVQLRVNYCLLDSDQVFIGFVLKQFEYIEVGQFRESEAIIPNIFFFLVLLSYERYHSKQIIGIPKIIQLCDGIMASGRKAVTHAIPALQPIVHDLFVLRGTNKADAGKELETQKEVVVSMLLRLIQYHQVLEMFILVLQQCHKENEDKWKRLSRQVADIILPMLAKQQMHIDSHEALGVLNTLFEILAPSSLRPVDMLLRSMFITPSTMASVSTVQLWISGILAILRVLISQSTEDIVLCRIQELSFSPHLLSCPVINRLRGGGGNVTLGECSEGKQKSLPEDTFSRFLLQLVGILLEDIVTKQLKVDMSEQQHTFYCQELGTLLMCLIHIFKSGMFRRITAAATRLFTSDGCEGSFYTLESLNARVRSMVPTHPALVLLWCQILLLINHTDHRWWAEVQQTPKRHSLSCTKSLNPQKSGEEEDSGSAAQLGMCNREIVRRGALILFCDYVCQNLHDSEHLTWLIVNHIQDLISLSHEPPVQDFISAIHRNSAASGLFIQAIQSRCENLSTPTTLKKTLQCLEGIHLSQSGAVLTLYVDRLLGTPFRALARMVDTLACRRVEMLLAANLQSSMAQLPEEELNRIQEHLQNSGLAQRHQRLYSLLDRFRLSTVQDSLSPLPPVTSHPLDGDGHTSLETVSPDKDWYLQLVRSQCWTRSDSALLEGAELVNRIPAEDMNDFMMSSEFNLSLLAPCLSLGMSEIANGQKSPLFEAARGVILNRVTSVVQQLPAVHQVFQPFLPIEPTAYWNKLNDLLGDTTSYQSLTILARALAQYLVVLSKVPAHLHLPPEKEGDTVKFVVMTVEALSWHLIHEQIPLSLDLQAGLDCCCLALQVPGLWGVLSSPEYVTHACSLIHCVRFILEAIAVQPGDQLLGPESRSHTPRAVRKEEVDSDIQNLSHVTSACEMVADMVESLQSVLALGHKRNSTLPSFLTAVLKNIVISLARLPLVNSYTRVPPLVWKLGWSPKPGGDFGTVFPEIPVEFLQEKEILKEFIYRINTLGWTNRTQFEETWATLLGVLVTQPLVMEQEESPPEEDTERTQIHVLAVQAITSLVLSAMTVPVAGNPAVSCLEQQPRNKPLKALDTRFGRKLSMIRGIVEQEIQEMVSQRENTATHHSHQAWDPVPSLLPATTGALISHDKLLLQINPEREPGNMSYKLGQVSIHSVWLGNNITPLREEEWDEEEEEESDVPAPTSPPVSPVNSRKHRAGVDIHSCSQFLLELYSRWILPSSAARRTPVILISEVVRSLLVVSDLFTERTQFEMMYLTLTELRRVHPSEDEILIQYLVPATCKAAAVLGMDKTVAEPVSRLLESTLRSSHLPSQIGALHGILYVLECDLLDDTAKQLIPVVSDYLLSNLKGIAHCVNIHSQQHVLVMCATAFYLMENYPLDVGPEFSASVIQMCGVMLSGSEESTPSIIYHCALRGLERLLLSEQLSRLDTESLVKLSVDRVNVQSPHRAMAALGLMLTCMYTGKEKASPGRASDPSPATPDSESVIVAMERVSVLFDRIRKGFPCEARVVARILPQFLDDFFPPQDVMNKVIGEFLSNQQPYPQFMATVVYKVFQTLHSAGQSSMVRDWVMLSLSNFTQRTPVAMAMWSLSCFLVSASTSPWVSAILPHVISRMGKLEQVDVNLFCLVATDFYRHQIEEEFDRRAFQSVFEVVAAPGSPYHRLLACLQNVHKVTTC

Method for mHTT: Pre-Treatment of striatal cell line - First the medium was removed and new DMEM (DMEM, high glucose, HEPES, no phenol red) medium, supplemented with 10% fetal bovine serum (FBS), 1% Penicillin-Streptomycin, containing 10 µM compound was added. The cells were incubated at 33° C. for 24 hours.
Heat shock - Cells were heat shocked for 3 hours at 41° C.
Treatment - Medium was removed and new DMEM (DMEM, high glucose, HEPES, no phenol red) medium, supplemented with 1% fetal bovine serum (FBS), 1% Penicillin-Streptomycin, containing 10 µM compound was added. The cells were incubated at 33° C. for 48 hours.
Staining - Cells were permeabilized with 0.3% Triton X-100 in 4° C. PBS (pH 7.4 from ThermoFisher) for 10 minutes. Then the cells were washed two times with 4° C. PBS. Subsequently, cells are blocked with 3% NGS (normal goat serum from Thermo Fisher) in 4° C. PBS for 1 hour. Cells were incubated with primary antibodies in blocking buffer (PBS, 3% NGS, 0.02% NaN3) over night at 4° C. Primary antibodies were mouse antipolyglutamine monoclonal antibody 3B5H10 (Sigma-Aldrich) at 1:250 dilution and Guinea Pig anti-MAP2 polyclonal antibody (Synaptic Systems) at 1:500 dilution. 3B5H10 binds to diffuse mHTT. Diffuse mHTT is a monomeric and small oligomeric mHTT.
Cells were washed 2 times with 4° C. PBS, and then incubated with secondary antibodies at 1:2000 dilution in blocking buffer for 1 hour at room temperature. […] Cells were washed 2 times with 4° C. PBS, and then the nuclei were counterstain with DAPI (ThermoFisher) for 10 min at room temperature in the dark. Cells were washed 2 times with 4° C. PBS, and then 4° C. PBS was added to cells and then images were acquired.
Fluorescence Imaging - Imaging sessions were performed on a confocal microscope system (Carl Zeiss Microscopy) equipped with a dual spinning disk unit (Yokogawa). All components of the imaging system were controlled via the ZEN 2 software suite (Carl Zeiss Microscopy). The laser lines used were 405 nm, 488 nm and 639 nm to excite DAPI or the respective fluorophores. […] Nested t test was performed to calculate the significance amongst repeated measurements using GraphPad Prism software.
ST HDH Q7/7 (CH00097, Coriell Institute) striatal derived cell line from a knock in transgenic mouse containing HTT loci with a humanized Exon 1 containing 7 polyglutamine repeats.
EC 50 value was determined with non-linear regression.

With `Cc1[nH]c2ccc(C(=O)NCCN(C(C)C)C(C)C)cc2c1C` [Compound 22], the viability at 10 µM in data set [1] (Mus musculus, STHdh 111/111, 10 µM, 48 hours treatment, read-out: Cell Viability striatal cells 3h heat shocked) was 102%. Besides, the “cell viability in comparison to pre-heat shock cell viability” value in data set [1] (STHdh 111/111, 48 hours after 3 hours heat shock) came out at 125%. The “cell viability at 24 hours after treatment” value in data set [1] (STHdh 111/111 after heat shock, versus STHdh 7/7 control cells) is given as “almost equivalent to the cell viability of STHdh 7/7 control cells”. Further, the autophagic flux result in the data set with LC3 (autophagic flux) (STHdh 111/111, LC3 area with NH4Cl minus without NH4Cl) is given as “positive autophagic flux”. Besides, the LC3 stained area entry in the data set with LC3 (autophagic flux) (STHdh 111/111 neurons) is recorded as “decreased”. The “penetration of the blood brain area in vivo” value in data set [2] (male CD1 mice, 33.3 mg/kg body weight, 33.3 mg/kg) is “penetrates the blood brain area; also recorded: can penetrate the blood brain area in vivo”. The “crossing of the blood brain barrier” value in data set [2] (mouse, in vivo) is on record as “can cross the blood brain barrier”. Besides, the “Nuclear diffuse mHTT reduced by” value on mHTT was 32%.
